From US11014904B2, “1,2,4-triazine-3-amine derivative, preparation method therefor, and use thereof in medicine” (Jiangsu Hengrui Medicine Co., Ltd., priority 2017, dated 2021) come the findings set out here.

The data set in a line: Pharmacokinetics assay in mice. The format is in vivo. The settings on record: mouse, po, C57 mice (female), intragastric, 2 mg/kg, plasma; for Vd/F: read-out: Apparent distribution volume Vz/F; for AUC: read-out: Area under curve AUC; for CL/F: read-out: Clearance CLz/F; for half-life: read-out: Half-life T½ (converted); for Cmax: read-out: Plasma concentration Cmax; for MRT: read-out: Residence time MRT. As for the experimental part:
Mice were used as test animals. The drug concentration in plasma at different time points was determined by LC/MS/MS method after intragastrical administration of the compounds of Examples 2, 3, 17, 18, 19, 20, 31 and 44 to mice. The pharmacokinetic behavior of the compounds of the present invention was studied and evaluated in mice.
Seventy-two C57 mice (female) were purchased from Shanghai Jiesijie Laboratory Animal Co., LTD, with Certificate No.: SCXK (Shanghai) 2013-0006, and equally divided into 8 groups (9 mice per group).
A certain amount of the test compound was weighed, and added with 5% by volume of DMSO, 5% by volume of tween 80 and 90% by volume of normal saline to prepare a 0.1 mg/mL colorless, clear and transparent solution.
After an overnight fast, C57 mice were administered intragastrically the test compounds at an administration dosage of 2.0 mg/kg and an administration volume of 0.2 mL/10 g.
The mice were intragastrically administered the compounds of Examples 2, 3, 17, 18, 19, 20, 31 and 44. 0.1 ml of blood was taken before administration and at 0.5, 1.0, 2.0, 4.0, 6.0, 8.0, 11.0 and 24.0 hours after administration. The samples were stored in heparinized tubes, and centrifuged for 10 minutes at 3,500 rpm to separate the blood plasma. The plasma samples were stored at −20° C.
The content of the test compounds in the plasma of mice after intragastrical administration of the test compounds at different concentrations was determined: 25 μL of mouse plasma at each time after administration were taken, added with 50 μL of the internal standard solution of camptothecin (100 ng/mL) and 200 μL of acetonitrile, vortex-mixed for 5 minutes, and centrifuged for 10 minutes (4000 rpm). 5 μL of the supernatant were taken from the plasma samples for LC/MS/MS analysis.

As to `Nc1nnc(-c2cc(F)c3ncccc3c2)c(-c2ccccc2)n1` [Example 2, 6-(8-Fluoroquinolin-6-yl)-5-phenyl-1,2,4-triazin-3-amine], the Vd/F stood at 14.7 L/kg; the AUC (in general, concentration integrated over time) is 412 ng·h/mL; the CL/F came out at 78.3 mL/min/kg; the half-life (as a rule, how long it takes for the measured level to halve) is 2.17 h. Further, the Cmax turned out to be 441 ng/mL and the MRT (usually a mean duration of stay, worked out from the concentration-time curve) is 1.79 h.
Take `Nc1nnc(-c2ccc3ncccc3c2)c(-c2ccccc2)n1` [Example 3, 5-Phenyl-6-(quinolin-6-yl)-1,2,4-triazin-3-amine]: the Vd/F is 15.7 L/kg, the AUC worked out at 419 ng·h/mL, the CL/F came out at 78.6 mL/min/kg and the half-life was 2.3 h. The Cmax is 395 ng/mL and the MRT was found to be 1.61 h.
As to `Cc1ccnc2ccc(-c3nnc(N)nc3-c3ccccc3F)cc12` [Example 17, 5-(2-Fluorophenyl)-6-(4-methylquinolin-6-yl)-1,2,4-triazin-3-amine], the Vd/F is 15.3 L/kg, the AUC was determined as 204 ng·h/mL, the CL/F is 162 mL/min/kg and the half-life was 1.09 h. Also, the Cmax worked out at 265 ng/mL and the MRT was determined as 1.17 h.
As for `Cc1ccnc2ccc(-c3nnc(N)nc3-c3ccc(F)cc3)cc12` [Example 18, 5-(4-Fluorophenyl)-6-(4-methylquinolin-6-yl)-1,2,4-triazin-3-amine], the Vd/F amounted to 9.01 L/kg, the AUC is 495 ng·h/mL, the CL/F worked out at 65 mL/min/kg and the half-life is 1.59 h. In addition, the Cmax was 402 ng/mL and the MRT came out at 1.43 h.
For `Cc1ncnc2ccc(-c3nnc(N)nc3-c3ccc(F)cc3)cc12` [Example 19, 5-(4-Fluorophenyl)-6-(4-methylquinazolin-6-yl)-1,2,4-triazin-3-amine], the Vd/F was 1.57 L/kg, the AUC turned out to be 5030 ng·h/mL, the CL/F worked out at 6.61 mL/min/kg and the half-life was 2.74 h. Also, the Cmax came to 1960 ng/mL and the MRT came out at 3.13 h.
For `Cc1ccnc2c(F)cc(-c3nnc(N)nc3-c3ccc(F)cc3)cc12` [Example 20, 6-(8-Fluoro-4-methylquinolin-6-yl)-5-(4-fluorophenyl)-1,2,4-triazin-3-amine], the Vd/F came out at 3.05 L/kg, the AUC was found to be 1170 ng·h/mL, the CL/F is 28 mL/min/kg and the half-life is 1.24 h. In addition, the Cmax was 866 ng/mL and the MRT was determined as 1.41 h.
Take `Cc1ccnc2c(F)cc(-c3nnc(N)nc3-c3ccccc3F)cc12` [Example 31, 6-(8-Fluoro-4-methylquinolin-6-yl)-5-(2-fluorophenyl)-1,2,4-triazin-3-amine]: the Vd/F came to 16.7 L/kg, the AUC worked out at 339 ng·h/mL, the CL/F was 95 mL/min/kg and the half-life was 2.02 h. The Cmax amounted to 302 ng/mL and the MRT turned out to be 2.02 h.
For the compound `CCc1ccnc2ccc(-c3nnc(N)nc3-c3ccc(F)cc3)cc12` [Example 44, 6-(4-Ethylquinolin-6-yl)-5-(4-fluorophenyl)-1,2,4-triazin-3-amine], the Vd/F was 4.79 L/kg, the AUC is 501 ng·h/mL, the CL/F was 65 mL/min/kg and the half-life was 0.85 h. Besides, the Cmax came to 720 ng/mL and the MRT was determined as 0.85 h.
